# Source: patent US20220033396A1, “FURTHER HETEROAROMATIC COMPOUNDS HAVING ACTIVITY AGAINST RSV” (priority 2018, published 2022)
# Legend:
# rgRSV224 virus = assay: microbe, parasite or virus in culture; type: cell-based; settings: human respiratory syncytial virus, 72 h; rgRSV224 virus (MOI=1), HeLa cells, GFP expression three days post-virus exposure; averaged data of several repeat experiments; read-out: RSV HELA EC50
# in vitro = settings: human
structure (smiles),measurement,setting,value
"C[C@@H]1c2ccsc2CCN1C(=O)c1cc(-c2cccnc2)c2nc(-c3ccc(N4CC[C@H](C(N)=O)C4)cc3F)cn2c1 (single isomer, unassigned) [Compound 18, (3S)-1-(3-Fluoro-4-{6-[(4*R)-4-methyl-4,5,6,7-tetrahydro-thieno[3,2-c]pyridine-5-carbonyl]-8-(pyridin-3-yl)imidazo[1,2-a]pyridin-2-yl}phenyl)pyrrolidine-3-carboxamide]",EC50,rgRSV224 virus,0.108 µM
same,CC50 at 3 days,in vitro,21.7 µM
